“Also recorded” adds a separate entry of the source.
Experiments:
S95C Fab = assay: Competition assay: blocking covalent attachment of 111In-AABE; format: binding; conditions: excess nonradioactive ABE-metal chelate
From the text: (a) Competition ELISA curves. Different metal-ABE chelates compete with an immobilized indium chelate for binding Fab S95C. (b) Competitive binding of a series of metal-ABE chelates, measured by blocking the covalent attachment of ^111In-AABE to Fab S95C. SDSPAGE gel bands show increased labeling of the light chain with decreasing competition.
To further confirm that S95C Fab retained the ligand-binding specificity, we performed a competition assay to see whether nonradioactive ABE-indium, -iron, -cadmium, -scandium, or -gallium could block the covalent attachment of ^111In-AABE.

Fab S95C [1] = assay: Covalent attachment of 111In-chelates to engineered Fab S95C (SDS-PAGE); format: binding; conditions: physiological pH and temperature, raw culture medium with 10% fetal calf serum
Experimental: FIG. 5 Conjugation of electrophilic ^111In-benzyl-EDTA derivatives with engineered Fab S95C. Phosphorimage of 10-20% SDS-PAGE gel of samples of complete culture media incubated with ^111In-labeled (A) CABE, (B) CpABE, (C) AABE, and (D) ABE. The radiolabeled light chains migrate near 25 Kd.
To investigate whether either the S95C or the N96C Fab would bind irreversibly to its target, ^111In-labeled chelates bearing electrophilic groups were incubated at physiological pH and temperature with raw tissue culture medium from the cells expressing these recombinant proteins. The culture medium contained 10% fetal calf serum, representative of typical biological media.
The samples were analyzed by denaturing gel electrophoresis (SDS-PAGE). Separation under reducing and denaturing conditions on SDS-PAGE separates the light chain from the heavy chain of each Fab, functionally destroying the antibody-binding pocket. Chelates bound to the Fab but not covalently linked will dissociate because the antibody-binding pocket is no longer folded. […] However, a chelate that not only bound to a Fab but also covalently linked will be attached to the Fab light chain and migrate with it on SDS-PAGE.

[2] = Whole-body clearance of indium-111 labeled electrophilic benzyl-EDTA derivatives; format: in vivo; conditions: indium-111 labeled chelate, BALB/c mice; for apparent half-life, whole-body clearance: after tail-vein injection
Experimental: FIG. 4 Whole-body clearance of indium-^111I labeled electrophilic derivatives of benzyl-EDTA from BALB/c mice after tail-vein injection. Here the objective was to find an electrophilic chelate that clears from the animal quickly when not captured by an engineered CHA255.
As reactive ligands, a small set of chelates bearing electrophilic para substituents (FIG. 3) that could react with cysteine were prepared. To be most useful, the electrophilic ligands should be stable in biological media so that they not react prematurely with common biological nucleophiles such as the cysteine on glutathione or in albumin (Geigy Scientific Tables Vol 3, C. Lentner, ed., Ciba-Geigy Ltd., Basel, Switz (1984)). The whole-body clearance of the radiolabeled chelates from mice was studied (FIG. 4 and Chmura, A. J., et al., J. Controlled Release 78:249-258 (2002)) to identify the electrophilic chelates that are unreactive in plasma in vitro, and which also quantitatively clear from live animals.

Fab S95C [3] = assay: Kinetics of covalent bond formation with Fab S95C; format: binding; conditions: 22° C., pH 7.4
Experimental: FIG. 7 (a) Phosphorimage of a representative SDS-PAGE assay of the extent of permanent attachment of ^111In-AABE to the light chain of Fab S95C. (b)Kinetics of formation of the covalent bond between bound ^111In-AABE and Fab S95C, at 22° C., pH 7.4.
We explored the rate of covalent attachment of the AABE-^111In chelate to the S95C mutant, by monitoring the extent of reaction as a function of time. The covalent attachment was 50% complete in approximately 10 min at 22° C. (FIG. 7).

antibody 2D12.5 = assay: Competitive immunoassay (ELISA) of metal chelate binding; set-up: species or system mouse; conditions: reversible binding to parental 2D12.5
From the text: FIG. 9 Relative binding of metal-(S)NBD complexes to antibody 2D12.5. A representative set of competitive binding curves obtained from ELISA experiments. Distance between midpoints is related to difference between dissociation constants. Error bars (representing the standard error of the mean) are shown but are generally smaller than the data points.
FIG. 14 Binding of yttrium chelates with different stereochemistry to antibody 2D12.5, showing that the antibody binds a chelate with the side chain in the R configuration approximately one order of magnitude less well than the S configuration. […] Error bars are smaller than the data symbols. Data were generated by competitive ELISA.
A competitive immunoassay to measure the binding constants of various metal-(S)NBD complexes relative to the original Y^3+ complex (FIG. 9) was developed to assess the metal selectivity of antibody 2D12.5. Briefly, 2D12.5 was incubated at 37° C. in the presence of immobilized HSA-21T-Y-(S)BAD and a soluble metal-(S)NBD competitor (Y-(S)BAD was linked to human serum albumin via 2-iminothiolane). The metal-(S)NBD concentration was varied from μM to pM in order to determine the relative binding affinity of 2D12.5 for each metal chelate in comparison to Y-(S)NBD. […] Other antibodies that bind metal chelates do so with a strong preference for one or possibly two metals (Love, R. et al., Biochemistry 32, 10950-10959 (1993), and Khosraviani, M., et al., (2000) Bioconjugate Chem., 11, 267-277). For example, the (S)NBD chelate of group IIIB ion Sc(III) binds to the antibody with a much lower affinity (<1%) than the strongest binding rare earth complexes, perhaps because Sc(III) has a much smaller ionic radius (Meehan, P. R., et al., Coord. Chem. Rev., 181, 121145, and Shannon, R. D. (1976) Acta Crystallogr., Sect. A: Found. Crystallogr., A32, 751-767).

G54C mutant of 2D12.5 = assay: Permanent binding to G54C, competitive 90Y-AABD attachment, SDS-PAGE; conditions: 37° C.
Experimental: FIG. 17 a) Scheme describing the permanent binding pair. b) Infinite binding is observed not only for ^90Y-AABD but also for ^111In-AABD, assayed by SDS-PAGE under denaturing conditions where only permanently bound complexes remain attached to the antibody.
FIG. 18 The G54C mutant was preincubated in triplicate with 10 μM AABD complexes of Y^3+, In^3+ or Cu^2+, a negative control N-(1-carbamoyl-2-(4-nitrophenyl)-ethyl)-acrylamide or N-(4-carboxymethylphenyl)-acrylamide, or just buffer, for 5 min, 20 min or 120 min at 37° C., pH 7.5. At the stated times ^90Y-AABD (1 μM) was added to each solution to compete for free G54C. Permanent binding was assayed by measuring band intensities after SDS-PAGE. a) Phosphorimage of gel. The fainter the bands, the greater the permanent binding by the unlabeled ligand. b) Crystal structures of Y-DOTA, In-DOTA-mono(p aminoanilide) (some atoms removed for clarity) and Cu-DOTA.
FIG. 19 a) Metal-AABD (10 μM) complexes were preincubated separately with aliquots of G54C for 5 min, followed by addition of 1 μM ^90Y-AABD, which competes for free G54C, and SDS-PAGE analysis. b) From quantitative phosphorimaging, the highest-affinity AABD complexes form permanent bonds with G54C with higher yields than more 3+weakly binding rare earth-AABD complexes whose ionic radii are slightly smaller (Lu Yb^3+) or larger (Ce^3+, La^3+) than ideal.
We were curious to see if an even weaker binder such as a copper chelate (KD˜10^−4 M for Cu-NBD) would bind irreversibly under ordinary conditions. We tested this by comparing the permanent binding of Y^3+-, In^3+-, and Cu^2+-AABD, using competitive ^90Y-AABD attachment as an indicator (FIG. 18). […] Weaker binding In-AABD blocks >50% of the sites after 5 min preincubation, and even more at later times. Very weakly binding Cu-AABD initially occupies only about 10% of the G54C sites under these conditions, but it has permanently attached to G54C in good yield after 2 hr, blocking>70% of the sites.

G54C Fab = assay: Kinetics of permanent bond formation with G54C Fab; format: binding
Experimental: FIG. 21 Kinetics of permanent bond formation between G54C Fab (1 μM) and 10 μM ^90Y-labeled YAABD. The addition of a high concentration of Y-NBD, a reversibly binding competitor, after 6 min competitively blocks the re-binding of any Y-AABD that dissociates without forming a permanent bond. The experiment containing no competitor, on the other hand, allows any Y-AABD molecules initially bound in an unproductive mode to rebind in an orientation favorable for permanent covalent bond formation until a maximum is reached.
The question to be addressed was the probability that Y-AABD reacts with G54C the first time it forms a complex, instead of dissociating and rebinding. In the first experiment ^90Y-labeled Y-AABD (10 μM) was added to G54C Fab (1 μM) at 37° C., pH 7.5. Samples were withdrawn at various times and were immediately added to SAB, boiled and reduced under denaturing conditions to halt any further permanent bond formation. Samples were analyzed by SDS-PAGE, and the extent of permanent bond formation was determined by measuring the relative radioactivity of bands.
In a second experiment, performed in parallel, conditions were identical to the first except that the reversible competitor Y-NBD was added in vast excess (1 mM) relative to Y-AABD after 6 min, allowing labeled Y-AABD complexes to form bonds or dissociate, but competitively blocking any re-binding of Y-AABD to G54C.

SMILES | blocking of covalent attachment of 111In-AABE (S95C Fab) | covalent attachment to Fab S95C light chain (Fab S95C [1]) | apparent half-life, whole-body clearance [2] | time to 50% complete covalent attachment (Fab S95C [3]) | covalent attachment to Fab S95C light chain (Fab S95C [1]; listed as 111In-AABE) | covalent attachment to Fab S95C light chain (Fab S95C [1]; listed as AABE-^111In) | whole-body clearance [2] | Kd (antibody 2D12.5) | G54C sites blocked from 90Y-AABD (G54C mutant of 2D12.5; 10 μM complex, preincubation 5 min, pH 7.5) | permanent binding to G54C (G54C mutant of 2D12.5; pH 7.5, SDS-PAGE, listed as 90Y-AABD) | fraction of molecules reacting upon initial complex formation (G54C Fab)
Nc1ccc(C[C@@H](CN(CC(=O)O)CC(=O)O)N(CC(=O)O)CC(=O)O)cc1 [ABE, (S)-1-[p-(amino)benzyl]-EDTA, reference compound] | effectively blocks the reaction | not | about 4 h | – | – | – | – | – | – | – | –
C=CC(=O)Nc1ccc(C[C@@H](CN(CC(=O)O)CC(=O)O)N(CC(=O)O)CC(=O)O)cc1 [AABE, (S)-1-[p-(acrylamido)benzyl]-EDTA] | – | – | about 4 h | approximately 10 min | reacted equally well | reacted with the S95C mutant of CHA255 to permanently tag the light chain | showed the required clearance properties; also recorded: clears as completely—and almost as rapidly—as ABE | – | – | – | –
C=CC(=O)Nc1ccc(C[C@H]2CN(CC(=O)O)CCN(CC(=O)O)CCN(CC(=O)O)CCN2CC(=O)O)cc1 [Y-AABD, (S)-2-(4-acrylamidobenzyl)-DOTA] | – | – | – | – | – | – | – | 4 nM | > 90% | permanently and specifically attaches | about half

From patent publication US20060063209A1, “Engineered antibody fragment that irreversibly binds an antigen” (THE REGENTS OF THE UNIVERSITY OF CALIFORNIA, priority 2004, published 2006)
